According to US4180658A, “7[-2-Alkoxyamino(acetamido)]cephalosporin derivatives” (Bristol-Myers Company, priority 1978, dated 1979):
≈ marks a conversion by molar mass, not a printed value. Where two headings read alike, the source gives them in different places.

Assays:
[1] = tested on: S. pneumoniae; test: Antibiotic Activity in Nutrient Broth (MIC); type: cell-based; settings: Streptococcus pneumoniae, 10^-3 dilution of overnight broth culture, 45% AAB + 5% serum + 50% broth
Procedure: (§1) Biological testing was performed according to the procedures described by F. Leitner et al., Antimicrobial Agents and Chemotherapy 10(3), 426-435 (September, 1976).
(§2) Antibiotic Activity in Nutrient Broth
(§3) *45% AAB + 5% serum + 50% broth listed above.
(§4) **Dilution of overnight broth culture.

[2] = tested on: Str. pyogenes; test: Antibiotic Activity in Nutrient Broth (MIC); type: cell-based; settings: Streptococcus pyogenes, 10^-3 dilution, 45% AAB + 5% serum + 50% broth
Procedure: as §1, §2, §3, §4

[3] = tested on: E. coli Juhl; test: Antibiotic Activity in Nutrient Broth (MIC); type: cell-based; settings: Escherichia coli, 10^-4 dilution
Procedure: as §1, §2, §4

[4] = tested on: Ent. cloacae; test: Antibiotic Activity in Nutrient Broth (MIC); type: cell-based
Procedure: as §1, §2, §4

[5] = tested on: K. pneumoniae; test: Antibiotic Activity in Nutrient Broth (MIC); type: cell-based; settings: 10^-4 dilution
Procedure: as §1, §2, §4

[6] = tested on: Pr. mirabilis; test: Antibiotic Activity in Nutrient Broth (MIC); type: cell-based
Procedure: as §1, §2, §4

[7] = tested on: Pr. morganii; test: Antibiotic Activity in Nutrient Broth (MIC); type: cell-based; settings: Morganella morganii, 10^-4 dilution
Procedure: as §1, §2, §4

[8] = tested on: Pr. rettgeri; test: Antibiotic Activity in Nutrient Broth (MIC); type: cell-based; settings: Providencia rettgeri, Table 1, 10^-4 dilution
Procedure: as §1, §2, §4

[9] = tested on: Pr. vulgaris; test: Antibiotic Activity in Nutrient Broth (MIC); type: cell-based; settings: Proteus vulgaris, Table 1, 10^-4 dilution
Procedure: as §1, §2, §4

[10] = tested on: Ps. aeruginosa carb.; test: Antibiotic Activity in Nutrient Broth (MIC); type: cell-based; settings: Pseudomonas aeruginosa, Table 1, 10^-4 dilution
Procedure: as §1, §2, §4

[11] = tested on: Ps. aeruginosa; test: Antibiotic Activity in Nutrient Broth (MIC); type: cell-based; settings: 10^-4 dilution
Procedure: as §1, §2, §4

[12] = tested on: S. aureus BX1633; test: Antibiotic Activity in Nutrient Broth (MIC); type: cell-based; settings: Staphylococcus aureus
Procedure: as §1, §2, §4

[13] = tested on: S. aureus Meth-Res; test: Antibiotic Activity in Nutrient Broth (MIC); type: cell-based; settings: Staphylococcus aureus, 10^-3 dilution
Procedure: as §1, §2, §4

[14] = tested on: S. aureus Smith; test: Antibiotic Activity in Nutrient Broth (MIC); type: cell-based; settings: Staphylococcus aureus, 10^-4 dilution
Procedure: as §1, §2, §4

[15] = tested on: Sal. enteritidis; test: Antibiotic Activity in Nutrient Broth (MIC); type: cell-based; settings: Salmonella enterica, Table 1, 10^-4 dilution
Procedure: as §1, §2, §4

[16] = tested on: Ser. marcescens; test: Antibiotic Activity in Nutrient Broth (MIC); type: cell-based
Procedure: as §1, §2, §4

[17] = tested on: Str. faecalis; test: Antibiotic Activity in Nutrient Broth (MIC); type: cell-based; settings: Enterococcus faecalis, Table 1, 10^-4 dilution
Procedure: as §1, §2, §4

[18] = tested on: S. aureus; test: Antibiotic Activity in Nutrient Broth + 50% serum (MIC); type: cell-based; settings: Staphylococcus aureus, Table 1, 10^-4 dilution
Procedure: as §1, §2, §4

[19] = tested on: Enterobacter species; test: Secondary in vitro Screening (MIC); type: cell-based; settings: Table 2
Procedure: as §1

[20] = tested on: Haemophilus influenzae; test: Secondary in vitro Screening (MIC); type: cell-based; settings: Table 3, each line another isolate
Procedure: as §1

[21] = tested on: Klebsiella pneumoniae; test: Secondary in vitro Screening (MIC); type: cell-based; settings: Table 2, each line another isolate
Procedure: as §1

[22] = tested on: Pseudomonas aeruginosa; test: Secondary in vitro Screening (MIC); type: cell-based; settings: Table 2, each line another isolate
Procedure: as §1

[23] = Mouse Blood Levels; type: in vivo; settings: im, 40 mg/kg, IM 40 mgm./kg., phosphate buffer; for concentration at 0.25 h: 0.25 hours after administration; for concentration at 0.5 h: 0.5 hours after administration; for concentration at 1 h: 1 hour after administration; for concentration at 1.5 h: 1.5 hours after administration
Procedure: as §1
*Each group consisted of 6 animals and one blood sample was taken from
(§5) Compounds prepared in phosphate buffer and dosed IM at 40 mgm./kg.
Assay Organism: B. subtilis at pH 6.0

[24] = Solubility (dosing preparation in phosphate buffer); type: physicochemical; settings: compounds prepared in phosphate buffer for dosing
Excerpt: as §5

[25] = tested on: Staphylococcus aureus; test: Secondary in vitro Screening (MIC); type: cell-based; settings: Table 2, each line another isolate
Procedure: as §1

[26] = Table 1, second pair of columns
[27] = Enterobacter cloacae, Table 1, 10^-4 dilution, read-out: MIC
[28] = Table 1, second pair of columns, 10^-4 dilution
[29] = Klebsiella pneumoniae, Table 1, first pair of columns, read-out: MIC
[30] = Proteus mirabilis, Table 1, 10^-4 dilution, read-out: MIC
[31] = Pseudomonas aeruginosa, Table 1, first pair of columns, read-out: MIC
[32] = BX1633, Table 1, 10^-2 dilution
[33] = BX1633, Table 1, 10^-3 dilution
[34] = BX1633, Table 1, second pair of columns, 10^-2 dilution
[35] = Serratia marcescens, Table 1, 10^-4 dilution, read-out: MIC
[36] = first pair of lines (Example 1B susp.)
[37] = second pair of lines (Example 1B sol.)

For CO/N=C(\C(=O)N[C@@H]1C(=O)N2C(C(=O)O)=C(CSc3nnnn3CCN)CS[C@H]12)c1ccco1 [Example 1B, 7-(α-Methoxyiminofurylacetamido)-3-(1-[2'-aminoethyl]-tetrazol-5-ylthiomethyl)-3-cephem-4-carboxylic Acid], the MIC ([1]; Table 1, first pair of columns) was 0.008 µg/mL, the MIC [1, 26] was 0.004 µg/mL and the MIC ([2]; Table 1, first pair of columns) was 0.008 µg/mL. It also gave an MIC [2, 26] of 0.004 µg/mL, an MIC ([3]; Table 1, first pair of columns) of 8 µg/mL (≈ 15.7 µM) and an MIC [3, 26] of 2 µg/mL (≈ 3.93 µM). For the same molecule, the MIC [4, 27] was 16 µg/mL (≈ 31.5 µM), the MIC [4, 28] was 8 µg/mL (≈ 15.7 µM) and the MIC [5, 29] was 1 µg/mL (≈ 1.97 µM). The MIC ([5]; Klebsiella pneumoniae, Table 1, second pair of columns, read-out: MIC) was 16 µg/mL (≈ 31.5 µM), the MIC ([5]; Table 1, first pair of columns) was 2 µg/mL (≈ 3.93 µM) and the MIC [5, 26] was 32 µg/mL (≈ 62.9 µM). It also gave an MIC [6, 30] of 0.5 µg/mL (≈ 0.983 µM), an MIC [6, 28] of 0.5 µg/mL (≈ 0.983 µM) and an MIC ([7]; Table 1, first pair of columns) of 2 µg/mL (≈ 3.93 µM). The MIC [7, 26] was 1 µg/mL (≈ 1.97 µM), the MIC [8] was 1 µg/mL (≈ 1.97 µM) and the MIC [9] was 0.5 µg/mL (≈ 0.983 µM). The MIC [10] was 250 µg/mL (≈ 492 µM), the MIC [11, 31] was 125 µg/mL (≈ 246 µM) and the MIC ([11]; Pseudomonas aeruginosa, Table 1, second pair of columns, read-out: MIC) was 63 µg/mL (≈ 124 µM). For the same molecule, the MIC [11, 26] was 125 µg/mL (≈ 246 µM), the MIC [12, 32] was 1 µg/mL (≈ 1.97 µM) and the MIC [12, 33] was 0.5 µg/mL (≈ 0.983 µM). It also gave an MIC [12, 34] of 0.5 µg/mL (≈ 0.983 µM), an MIC ([13]; Table 1, first pair of columns) of 2 µg/mL (≈ 3.93 µM) and an MIC [13, 26] greater than 125 µg/mL. For the same molecule, the MIC ([14]; Table 1, first pair of columns) was 0.5 µg/mL (≈ 0.983 µM), the MIC [14, 26] was 0.5 µg/mL (≈ 0.983 µM) and the MIC [15] was no more than 0.25 µg/mL. It also gave an MIC [16, 35] of 8 µg/mL (≈ 15.7 µM), an MIC [16, 28] of 8 µg/mL (≈ 15.7 µM) and an MIC [17] of 63 µg/mL (≈ 124 µM). The MIC [18] was 1 µg/mL, the MIC [19] was 2 µg/mL (≈ 3.93 µM) and the MIC [20] was 0.5 µg/mL (≈ 0.983 µM). The MIC [21] was 2 µg/mL (≈ 3.93 µM), the MIC [22] was greater than 63 µg/mL and the concentration at 0.25 h [23, 36] was 35000 ng/mL. It also gave a concentration at 0.25 h [23, 37] of 33600 ng/mL, a concentration at 0.5 h [23, 36] of 17900 ng/mL and a concentration at 0.5 h [23, 37] of 17400 ng/mL. It also gave a concentration at 1 h [23, 36] of 5400 ng/mL, a concentration at 1 h [23, 37] of 3900 ng/mL and a concentration at 1.5 h [23, 36] of less than 2500 ng/mL. For the same molecule, the concentration at 1.5 h [23, 37] was less than 2600 ng/mL and the Solubility [24] was “susp. and sol”.
In the case of CO/N=C(\C(=O)N[C@@H]1C(=O)N2C(C(=O)O)=C(COC(N)=O)CS[C@H]12)c1ccco1 [Cefuroxime, sodium 6R,7R3-carbamoyloxymethyl-7-(2Z)-2-methoxyimino(fur-2-yl)acetamidoceph-3-m-4-carboxylate, reference compound], the MIC ([1]; Table 1, first pair of columns) is reported as 0.004 µg/mL, the MIC [1, 26] is reported as 0.004 µg/mL and the MIC ([2]; Table 1, first pair of columns) is reported as 0.004 µg/mL. The MIC [2, 26] was 0.004 µg/mL, the MIC ([3]; Table 1, first pair of columns) was 4 µg/mL and the MIC [3, 26] was 8 µg/mL. For the same molecule, the MIC [4, 27] was greater than 125 µg/mL, the MIC [5, 29] was 2 µg/mL and the MIC [6, 30] was 0.5 µg/mL. For the same molecule, the MIC [6, 28] was 0.5 µg/mL, the MIC ([7]; Table 1, first pair of columns) was 32 µg/mL and the MIC [7, 26] was 63 µg/mL. It also gave an MIC [8] of 16 µg/mL, an MIC [9] of 1 µg/mL and an MIC [10] greater than 1000 µg/mL. The MIC [11, 31] was greater than 125 µg/mL, the MIC [12, 32] was 0.5 µg/mL and the MIC [12, 33] was 0.5 µg/mL. The MIC [12, 34] was 2 µg/mL, the MIC ([13]; Table 1, first pair of columns) was 2 µg/mL and the MIC [13, 26] was greater than 125 µg/mL. For the same molecule, the MIC ([14]; Table 1, first pair of columns) was 0.13 µg/mL, the MIC [14, 26] was 0.5 µg/mL and the MIC [15] was 0.5 µg/mL. For the same molecule, the MIC [16, 35] was greater than 125 µg/mL, the MIC [16, 28] was greater than 125 µg/mL and the MIC [17] was greater than 125 µg/mL. It also gave an MIC [19] of 2 µg/mL, an MIC [21] of 2 µg/mL and an MIC [22] of 125 µg/mL. For the same molecule, the MIC [25] was 0.5 µg/mL, the concentration at 0.25 h [23, 36] was 34500 ng/mL and the concentration at 0.25 h [23, 37] was 25600 ng/mL. For the same molecule, the concentration at 0.5 h [23, 36] was 26300 ng/mL, the concentration at 0.5 h [23, 37] was 20600 ng/mL and the concentration at 1 h [23, 36] was 7600 ng/mL. The concentration at 1 h [23, 37] was 6000 ng/mL, the concentration at 1.5 h [23, 36] was 3100 ng/mL and the concentration at 1.5 h [23, 37] was 2100 ng/mL. For the same molecule, the Solubility [24] was “sol”.
